According to US20150299233A1, “COMPOSITIONS AND METHODS COMPRISING RHENIUM FOR THE TREATMENT OF CANCERS” (Massachusetts Institute of Technology, priority 2014, published 2015):
Like-named read-outs stand apart in the source and are kept apart here.

How the values were obtained:
A549 cells [1] = experiment: MTT cytotoxicity assay, A549 cells; assay type: cell-based, human
Method: In vitro toxicity of the rhenium (v) oxo complexes, 1 and 2 towards a panel of human cell lines was determined using the colorimetic MTT [[3-(4,5-dimethylithiazol-2-yl)-2,5-diphenyltetrazolium bromide] assay.
The in vitro effect of rhenium(V) oxo complexes 1 and 2 toward a panel of human cell lines was determined by the colorimetric MTT [3-(4,5-dimethylthiazol-2-yl)-2,5-diphenyltetrazolium bromide] assay. […] The IC50 values, or concentration required to induce 50% cell death, were derived from dose—response curves and are summarized in Table 1.
Cells (2×10^3 cells/well) were seeded in a 96-well plate. […] 1 and 2 were prepared as 10 mM solutions in DMSO and diluted using media. The final concentration of DMSO in each well was 0.5%, and this amount was also present in the untreated control. After 72 h, the medium was removed, 200 μL of a 0.4 mg/mL solution of MTT in DMEM, RPMI, or McCoy's 5A was added, and the plate was incubated for an additional 1-2 h. The DMEM/MTT, RPMI/MTT, or McCoy's 5A/MTT mixture was aspirated, and 200 μL of DMSO was added to dissolve the resulting purple formazan crystals. The absorbance of the solution wells was read at 550 nm. Absorbance values were normalized to DMSO-containing control wells and plotted as the concentration of test compound versus % cell viability. IC50 values were interpolated from the resulting dose-dependent curves. The reported IC50 values are the average from at least three independent experiments, each of which consisted of six replicates per concentration level.

NTERA-2 = experiment: MTT cytotoxicity assay, NTERA-2 cells; assay type: cell-based, human; settings: Table 1; 72 h exposure; ± standard deviation; read-out: IC50 NTERA-2 testis carcinoma
[2] = system: HT-29 (colorectal adenocarcinoma); experiment: MTT cytotoxicity assay, HT-29 cells; assay type: cell-based, human; settings: for IC50: Table 2, cisplatin-resistant cell line, 72 h exposure; for IC50 lower in HT-29 cells than IC50 of cisplatin: ratio to cisplatin
Method: Cytotoxicity MTT Assay. […] Cells (2×10^3 cells/well) were seeded in a 96-well plate. […] The final concentration of DMSO in each well was 0.5%, and this amount was also present in the untreated control. After 72 h, the medium was removed, 200 μL of a 0.4 mg/mL solution of MTT in DMEM, RPMI, or McCoy's 5A was added, and the plate was incubated for an additional 1-2 h. The DMEM/MTT, RPMI/MTT, or McCoy's 5A/MTT mixture was aspirated, and 200 μL of DMSO was added to dissolve the resulting purple formazan crystals. The absorbance of the solution wells was read at 550 nm. Absorbance values were normalized to DMSO-containing control wells and plotted as the concentration of test compound versus % cell viability. IC50 values were interpolated from the resulting dose-dependent curves. The reported IC50 values are the average from at least three independent experiments, each of which consisted of six replicates per concentration level.

[3] = system: DU 145 (prostate carcinoma); experiment: MTT cytotoxicity assay, DU 145 cells; assay type: cell-based, human; settings: Table 2; cisplatin-resistant cell line; 72 h exposure; read-out: IC50 DU 14S prostate carcinoma
[4] = Lipophilicity, partition between octanol and water; assay type: physicochemical; settings: experimentally determined
A549 cells [5] = experiment: JC-1 mitochondrial membrane potential assay; assay type: cell-based, human; settings: for JC-1 green fluorescence versus untreated cells (mitochondrial membrane disruption): 1, 2, shikonin 20 μM for 12 h, CCCP 5 μM for 12 h
Method: The effect of 1 and 2 on the mitochondrial membrane potential was assessed by flow cytometry, using the JC-1 assay (5,5′,6,6′-tetrachloro-1,1′,3,3′-tetraethylbenzimidazolyl carbo-cyanine iodide). JC-1 is a cationic lipophilic dye that localizes in the mitochondria of healthy cells as red-emitting aggregates. If the mitochondrial membrane potential is disrupted, JC-1 forms green-emitting monomers. […] This could explain the high residual toxicity (>1 μM) observed for A549 cells co-incubated with the rhenium complexes (1 and 2) and necrostatin-1 (FIG. 1B).
JC-1 Assay. The JC-1 Mitochondrial Membrane Potential Assay Kit (Cayman) was used. The manufacturer's protocol was followed to carry out this experiment. Briefly, to untreated and treated A549 cells (1.5×10^6 cells/well) grown in six-well plates was added the JC-1 staining solution (100 μL/mL of cell media). The cells were incubated for 30 min, harvested, and analyzed by using the FACSCalibur-HTS flow cytometer (BD Biosciences) (20 000 events per sample were acquired).The FL1 channel was used to assess mitochondrial depolarization. Cell populations were analyzed using the FlowJo software (Tree Star).

A549 cells [6] = experiment: Propidium iodide uptake, flow cytometry; assay type: cell-based, human; settings: for PI uptake versus untreated control cells: 20 μM for 12 h; for effect of N-acetylcysteine pretreatment on induced PI uptake: N-acetylcysteine 3 mM for 1 h; for effect of necrostatin-1 on mediated PI uptake: necrostatin-1 60 μM
Method: Intracellular ROS production and mitochondrial membrane depletion contribute to necroptosis. Cells undergoing necroptosis display necrosis-like morphological features such as loss of cell membrane integrity, increase in organelle and cell volume (oncosis), and intact nuclear membrane. To further test whether 1- and 2-treatment can trigger necroptosis, Hoechst 33258/propidium iodide (PI) double staining was carried out to determine nuclear membrane morphology and integrity. Hoechst 33258 is a DNA minor groove binder that is routinely used to visualize the nucleus without the need for cell permeabilization. When used without cell permeabilization agents, PI stains the nuclei of necrotic cells. Early-stage apoptotic and normal cells maintain cell membrane integrity and thus are not stained by PI. A549 cells were treated with 1 and 2 (20 μM for 12 h), incubated with Hoechst 33258 and PI, and imaged using a fluorescence microscope.
Propidium Iodide Uptake. Untreated and treated A549 cells (1.5×10^6 cells/well) grown in six-well plates were washed with PBS (1 mL×3), harvested, incubated with PI (5 μM), and analyzed by using the FACSCalibur-HTS flow cytometer (BD Biosciences) (20 000 events per sample were acquired). The FL2 channel was used to assess intracellular PI uptake. Cell populations were analyzed using the FlowJo software (Tree Star).

[7] = Stability in whole human blood (octanol extraction, GFAAS); assay type: in vitro ADME; settings: 500 μM, fresh human blood, 37° C.
Method: The stability of biologically active compounds in human blood is vitally important for their potential application in clinical settings. The stability of 1 in whole human blood using a recently developed protocol was investigated. The method exploits the ability of octanol to extract hydrophobic metal complexes such as 1. The rhenium complex 1 (500 μM) was incubated with fresh human blood at 37° C., and aliquots were extracted into octanol at various time points. The amount of 1 in the octanol extracts (corresponding to unreacted 1) was measured by graphite furnace atomic absorption spectroscopy (GFAAS).

[8] = Table 1, 72 h exposure, ± standard deviation, read-out: IC50 A549 lung carcinoma
[9] = Table A, average of three independent determinations, read-out: IC50 A549 (lung)

SMILES | IC50 (A549 cells [1]; [8]) [µM] | IC50 (A549 cells [1]; [9]) [µM] | higher toxicity for lung carcinoma A549 cells than cisplatin (A549 cells [1]; ratio to cisplatin, Example 1) [fold] | IC50 (NTERA-2) [µM] | IC50 [2] [µM] | IC50 lower in HT-29 cells than IC50 of cisplatin [2] [fold] | IC50 [3] [µM] | log P [4] | induced mitochondrial membrane depletion with necrostatin-1 (A549 cells [5]) | JC-1 green fluorescence versus untreated cells (mitochondrial membrane disruption) (A549 cells [5]) | PI uptake versus untreated control cells (A549 cells [6]) | effect of N-acetylcysteine pretreatment on induced PI uptake (A549 cells [6]) | effect of necrostatin-1 on mediated PI uptake (A549 cells [6]) | half-life in human blood [7] [min]
C[O][Re](=[O])([Cl])[Cl].c1ccc(-c2ccnc3c2ccc2c(-c4ccccc4)ccnc23)cc1 [Compound 1, [ReO(OMe)(4,7-diphenyl-1,10-phenanthroline)-Cl2]] | 0.207 ± 0.004 | 0.207 ± 0.004 | 37 | 0.23 ± 0.028 | 0.085 ± 0.011 | 300 | 2.84 ± 0.381 | 1.20 | amplified | increased green fluorescence | higher PI uptake | significantly decreased | could block | 29.1
C[O][Re-2]1(=[O])([Cl])([Cl])[n+]2cc(C)c(C)c3ccc4c(C)c(C)c[n+]1c4c32 [Compound 2, [ReO(OMe)(3,4,7,8-tetramethyl-1,10-phenanthroline)Cl2]] | 0.157 ± 0.015 | 0.073 ± 0.003 |  | 0.255 ± 0.035 | 0.095 ± 0.02 | 300 | 1.37 ± 0.084 | 0.95 | amplified | increased green fluorescence | higher PI uptake | significantly decreased | could block | 
